Test results as given in ChEMBL document CHEMBL3046582, “Antifeedant activity of sesquiterpenes from celastraceae” (1997).

Experiments:
Type in all cases: functional
[1] = test system: Spodoptera littoralis; test: Antifeedant activity against newly ecdysed fifth-instar larval stage of Spodoptera littoralis in compound-pretreated lettuce leaf disks assessed as consumed area of leaf disks at 0.01 ug/cm'2 measured at 30 min intervals for 4-5 hr post-drug exposure by choice test
[2] = test system: Spodoptera littoralis; test: Antifeedant activity against newly ecdysed fifth-instar larval stage of Spodoptera littoralis in compound-pretreated lettuce leaf disks assessed as consumed area of leaf disks at 0.1 ug/cm'2 measured at 30 min intervals for 4-5 hr post-drug exposure by choice test
[3] = test system: Spodoptera littoralis; test: Antifeedant activity against newly ecdysed fifth-instar larval stage of Spodoptera littoralis in compound-pretreated lettuce leaf disks assessed as consumed area of leaf disks at 1 ug/cm'2 measured at 30 min intervals for 4-5 hr post-drug exposure by choice test
[4] = test system: Spodoptera littoralis; test: Antifeedant activity against newly ecdysed fifth-instar larval stage of Spodoptera littoralis in compound-pretreated lettuce leaf disks assessed as consumed area of leaf disks at 10 ug/cm'2 measured at 30 min intervals for 4-5 hr post-drug exposure by choice test

COCCCC[C@@H]1[C@@H]2[C@@H](OC(C)=O)[C@@]3(OC2(C)C)[C@@](OC(C)=O)([C@@H](OC(C)=O)CC[C@]3(C)O)[C@@H]1OC(=O)c1ccccc1
FR50 [1]: 0.69 | FR50 [2]: 0.23 | FR50 [3]: 0 | FR50 [4]: 0
